According to patent US5929099A, “Pharmaceutical composition for inhibiting the growth of cancers” (Procter & Gamble Co., priority 1996, dated 1999):
In brackets after ≈: the same amount, converted by molar mass. Where two headings read alike, the source gives them in different places.

What was measured:
[1] = tested on: HIV-1 in chronic infected ACH-2 cells (T-cell); experiment: HIV chronic study, T-cell HIV replication; type: cell-based; conditions: Human immunodeficiency virus 1, ACH-2; 60 μg/ml; increase; read-out: T-cell HIV replication was increased
Procedure: (§1) These cells were treated with test samples.

lung tumor cells (A-549) = experiment: Related study, lung tumor cells, optical density (Table 3); type: cell-based, human; conditions: for Optical Density: 0-Control 0.600
From the text: (§2) Table 3 summarizes the results

[2] = tested on: HIV-1 in chronic infected U1 cells (HIV monocytes); experiment: HIV chronic study, monocyte HIV replication; type: cell-based; conditions: Human immunodeficiency virus 1, Monocyte; 60 μg/ml; read-out: suppressed replication in the HIV monocytes
Procedure: as §1

[3] = tested on: colon tumor cells (HT-29); experiment: Related study, colon tumor cells, optical density (Table 3); type: cell-based, human; conditions: for Optical Density: 0-Control 0.398
From the text: as §2

[4] = tested on: breast tumor cells (MCF-7); experiment: Related study, breast tumor cells, optical density (Table 3); type: cell-based; conditions: for Optical Density: 0-Control 0.245
From the text: as §2

HIV = experiment: In vitro acute model for HIV, viral replication; type: cell-based; conditions: read-out: inhibited viral replication
Procedure: In an in vitro acute model for HIV carbendazim inhibited viral replication by 100% at 4 μg/ml and AZT inhibited viral replication by 98% at 1 μg/ml. Thiabendazole inhibited viral replication by 98% at 60 μg/ml.

[5] = Toxicity to normal healthy cells (Table 2); type: cell-based; conditions: read-out: EC-50 (the source's name)
From the text: The EC50 is the concentration at which one half of the cells are killed.
(§3) In normal healthy cells, the following results were obtained.

MX1 breast tumor cells = experiment: MTT cell viability, breast tumor cells (Table 1); type: cell-based; conditions: Homo sapiens, 120 h, approx. 5 days, read-out: EC-50 Result
Procedure: (§4) The following cell culture tests were performed to test the toxicity of the benzimidazole compounds on colon, breast and lung human tumor cells. The viability of the cells were tested by looking at MTT (3-[4,5-dimethylthiazol-2-yl]-2,5-diphenyltetrazolium bromide) reduction. MTT assay is a well known measure of cell viability.
(§5) The colon tumor cells (HT29 from American Type Culture Collection (ATCC)) and the breast cells (MX1 from cell lines from ATCC) were cultured in Eagle's Miminal Essential Medium with 10% fetal bovine serum. The lung tumor cells (A549 from ATCC cell lines) were cultured in Ham's F12 medium with 10% fetal bovine serum.
(§6) The tumor cells were passaged and seeded into culture flasks at the desired cell densities. The culture medium was decanted and the cell sheets were washed twice with phosphate buffered saline (PBS). The cells were trypsinized and triturated prior to seeding the flasks. Unless otherwise indicated the cultures were incubated at 37±1° C. in a humidified atmosphere of 5±1% carbon dioxide in air. The cultures were incubated until they were 50-80% confluent.
(§7) The cells were subcultured when the flasks were subconfluent. The medium was aspirated from the flasks and the cell sheets rinsed twice with PBS. Next, the Trypsin Solution was added to each flask to cover the cell sheet. The Trypsin Solution was removed after 30-60 seconds and the flasks were incubated at room temperature for two to six minutes. When 90% of the cells became dislodged, growth medium was added. The cells were removed by trituration and transferred to a sterile centrifuge tube. The concentration of cells in the suspension was determined, and an appropriate dilution was made to obtain a density of 5000 cells/ml. The cells were subcultured into the designated wells of the 96-well bioassay plates (200 microliter cell suspension per well). PBS was added to all the remaining wells to maintain humidity. The plates were then incubated overnight before test article treatment.
(§8) Each dose of test article was tested by treating quadruplicate wells of cultures with 100 microliter of each dilution. Those wells designated as solvent controls received an additional 100 microliter of methanol control; negative controls wells received an additional 100 microliters of treatment medium. PBS was added to the remaining wells not treated with test article or medium. The plates were then incubated for approximately 5 days.
(§9) At the end of the 5 day incubation, each dose group was examined microscopically to assess toxicity. A 0.5 mg/ml dilution of MTT was made in treatment medium, and the dilution was filtered through a 0.45 micrometer filter to remove undissolved crystals. The medium was decanted from the wells of the bioassy plates. Immediately thereafter, […] of the filtered MTT solution was added to all test wells except for the two untreated blank test wells. The two blank wells received 200 microliters of treatment medium. The plates were returned to the incubator for about 3 hours. After incubation, the MTT containing medium was decanted. […] was added to each well and the plates were shaken at room temperature for about 2 hours.
(§10) The absorbance at 550 mn (OD550) of each well was measured with a Molecular Devices (Menlo Park, Calif.) VMax plate reader.
(§11) The mean OD550 of the solvent control wells and that of each test article dilution, and that of each of the blank wells and the positive control were calculated. The mean OD550 of the blank wells was subtracted from the mean of the solvent control wells, and test article wells, respectively to give the corresponding mean OD550. [formula]
(§12) Dose response curves were prepared as semi-log plots with % of control on the ordinate (linear) and the test article concentration on the abscissa (logarithmic). The EC50 was interpolated from the plots for each test article.
(§13) For the test articles administered in methanol, separate responses were prepared to correct for the methanol data. […]

HT29 colon tumor cells = experiment: MTT cell viability, colon tumor cells (Table 1); type: cell-based; conditions: Homo sapiens, HT-29, 120 h, approx. 5 days, read-out: EC-50 Result
Procedure: as §4, §5, §6, §7, §8, §9, §10, §11, §12, §13

A549 lung tumor cells = experiment: MTT cell viability, lung tumor cells (Table 1); type: cell-based; conditions: Homo sapiens, A549, 120 h, approx. 5 days, read-out: EC-50 Result
Procedure: as §4, §5, §6, §7, §8, §9, §10, §11, §12, §13

normal healthy cells = experiment: Toxicity to normal healthy cells, overall comparison; type: cell-based; conditions: versus adriamycin
From the text: as §3

MX1 breast cancer tumors = experiment: Mouse model for breast cancer, subcutaneous tumor growth; type: in vivo; conditions: 500 mg/kg; MX1 implanted subcutaneously
Procedure: (§14) In a mouse model for breast, lung and colon cancer Carbendazim slowed tumor growth. MX1 breast cancer tumors implanted subcutaneously under the mice skin were treated with 500 mg/kg of Carbendazim. Tumor growth was slowed by 42%. Carbendazim slowed tumor growth in lung A549 tumors implanted subcutaneously under the mice skin by 57% at the same dose. In a screening test of HT29 tumors implanted subcutaneously under the mice skin, tumor growth was slowed 54% at 2500 mg/kg dose of Carbendazim.

melanoma, B 16 = experiment: In vivo mouse model for melanoma, life span
HT29 tumors = experiment: Mouse model for colon cancer, subcutaneous tumor growth; type: in vivo; conditions: 2500 mg/kg; HT29 implanted subcutaneously; screening test
Procedure: as §14

lung A549 tumors = experiment: Mouse model for lung cancer, subcutaneous tumor growth; type: in vivo; conditions: same dose (500 mg/kg); A549 implanted subcutaneously
Procedure: as §14

leukemia, P388 = experiment: In vivo mouse model for leukemia, life span
[6] = bronchial cells, Broncheal Cells, first value
[7] = bronchial cells, Broncheal Cells, second value
[8] = kerotinoyle cells, second value

## c1ccc2[nH]c(-c3cscn3)nc2c1 [Thiabendazole, 2-(4-thiazolyl)-1 H-benzimidazole]
[1]
  activation at 60 µg/mL: 26%
Lung tumor cells (A-549)
  killing of tumor cells: effectively killed these cells
Lung tumor cells (A-549); 0.87 ppm
  Optical Density: 1.32
Lung tumor cells (A-549); 3.46 ppm
  Optical Density: 1.12
Lung tumor cells (A-549); 17.3 ppm
  Optical Density: 0.851
Lung tumor cells (A-549); 35 ppm
  Optical Density: 0.411
Lung tumor cells (A-549); 173 ppm
  Optical Density: 0.007
[2]
  inhibition at 60 µg/mL: 74%
[3]
  killing of tumor cells: effectively killed these cells
[3]; 0.87 ppm
  Optical Density: 0.852
[3]; 3.46 ppm
  Optical Density: 0.713
[3]; 17.3 ppm
  Optical Density: 0.204
[3]; 35 ppm
  Optical Density: 0.011
[3]; 173 ppm
  Optical Density: 0.005
[4]
  killing of tumor cells: effectively killed these cells
[4]; 0.87 ppm
  Optical Density: 0.507
[4]; 3.46 ppm
  Optical Density: 0.466
[4]; 17.3 ppm
  Optical Density: 0.258
[4]; 35 ppm
  Optical Density: 0.025
[4]; 173 ppm
  Optical Density: 0.007
HIV; Human immunodeficiency virus 1, 60 μg/ml
  inhibition at 60 µg/mL: 98%

## CCCCNC(=O)n1c(NC(=O)OC)nc2ccccc21 [benomyl, methyl 1-(butylcarbamoyl)2-benzimidazolecarbamate]
[5]; [6]
  CC50: 0.728 µg/mL (≈ 2.51 µM)
[5]; [7]
  CC50: 0.682 µg/mL (≈ 2.35 µM)
[5]; fibroblasts, first value
  CC50: 3.24 µg/mL (≈ 11.2 µM)
[5]; fibroblasts, second value
  CC50: 2.81 µg/mL (≈ 9.68 µM)
[5]; kerotinoyle cells, first value
  CC50: 3.26 µg/mL (≈ 11.2 µM)
[5]; [8]
  CC50: 2.4 µg/mL (≈ 8.27 µM)
MX1 breast tumor cells; MX1, first column
  IC50: 1.42 µg/mL (≈ 4.89 µM)
MX1 breast tumor cells; MX1, second column
  IC50: 2.42 µg/mL (≈ 8.34 µM)
HT29 colon tumor cells; HT29, first column
  IC50: 0.742 µg/mL (≈ 2.56 µM)
HT29 colon tumor cells; HT29, second column
  IC50: 0.747 µg/mL (≈ 2.57 µM)
A549 lung tumor cells; A549, first column
  IC50: 0.98 µg/mL (≈ 3.38 µM)
A549 lung tumor cells; A549, second column
  IC50: 1.02 µg/mL (≈ 3.51 µM)
Normal healthy cells
  toxicity to normal healthy cells relative to adriamycin: much less toxic to normal healthy cells than adriamycin

## COC(=O)Nc1nc2ccccc2[nH]1 [carbendazim, methyl 2-benzimidazole carbamate]
[5]; [6]
  CC50: 0.32 µg/mL (≈ 1.67 µM)
[5]; [7]
  CC50: 0.506 µg/mL (≈ 2.65 µM)
[5]; fibroblasts, first value
  CC50: 1.52 µg/mL (≈ 7.95 µM)
[5]; fibroblasts, second value
  CC50: 1.42 µg/mL (≈ 7.43 µM)
[5]; kerotinoyle cells, first value
  CC50: 0.752 µg/mL (≈ 3.93 µM)
[5]; [8]
  CC50: 0.822 µg/mL (≈ 4.3 µM)
MX1 breast cancer tumors
  Tumor growth was slowed by: 42%
melanoma, B 16; 1000 mg/kg
  increased the life span versus control: 131%
melanoma, B 16; 2000 mg/kg
  increased the life span versus control: 163%
melanoma, B 16; 4000 mg/kg
  increased the life span versus control: 187%
MX1 breast tumor cells; MX1, first column
  IC50: 0.829 µg/mL (≈ 4.34 µM)
MX1 breast tumor cells; MX1, second column
  IC50: 0.856 µg/mL (≈ 4.48 µM)
HT29 tumors
  tumor growth was slowed: 54%
Lung A549 tumors
  slowed tumor growth by: 57%
HT29 colon tumor cells; HT29, first column
  IC50: 0.621 µg/mL (≈ 3.25 µM)
HT29 colon tumor cells; HT29, second column
  IC50: 0.662 µg/mL (≈ 3.46 µM)
A549 lung tumor cells; A549, first column
  IC50: 0.856 µg/mL (≈ 4.48 µM)
A549 lung tumor cells; A549, second column
  IC50: 0.836 µg/mL (≈ 4.37 µM)
leukemia, P388; 1000 mg/kg
  increased the life span of the mice versus control: 129%
leukemia, P388; 2000 mg/kg
  increased the life span of the mice versus control: 148%
leukemia, P388; 4000 mg/kg
  increased the life span of the mice versus control: 189%
HIV; Human immunodeficiency virus 1, 4 μg/ml
  inhibition at 4 µg/mL: 100%
Normal healthy cells
  toxicity to normal healthy cells relative to adriamycin: much less toxic to normal healthy cells than adriamycin
